Assay results as given in PMC10648852, “Molecular drivers of resistance to sulbactam-durlobactam in contemporary clinical isolates of Acinetobacter baumannii” (Antimicrobial Agents and Chemotherapy, 2023).
Where two headings read alike, the source gives them in different places.

How the values were obtained:
[1] = system: A. baumannii clinical isolates; assay: microbe, parasite or virus in culture; assay type: cell-based; settings: Acinetobacter baumannii
In short: (§1)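 SUL-DUR combines serially twofold-diluted sulbactam with durlobactam held at 4 µg/mL; MICs obtained by CLSI-standard broth microdilution and read against CLSI breakpoints when these exist.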

[2] = system: A. nosocomialis clinical isolate; assay: microbe, parasite or virus in culture; assay type: cell-based; settings: Acinetobacter nosocomialis, isolate ARC7023 (IHMA 2118812), France, BSI, 2019, read-out: MIC
In short: as §1

[3] = system: A. pittii clinical isolates; assay: microbe, parasite or virus in culture; assay type: cell-based; settings: Acinetobacter pittii
In short: as §1

[4] = system: A. baumannii PBP3 Q488K; assay: Acylation rate constant (kinact/Ki), fluorescence anisotropy competition with BOCILLIN
[5] = system: A. baumannii PBP3 S395F; assay: as above; settings: variant data from McLeod et al. (2018)
[6] = system: ABC clinical isolates with SUL-DUR MIC > 4 µg/mL; assay: microbe, parasite or virus in culture; assay type: cell-based, Acinetobacter baumannii-calcoaceticus complex
In short: as §1

[7] = system: A. baumannii PBP3 H370Y; assay: Acylation rate constant (kinact/Ki), fluorescence anisotropy competition with BOCILLIN
[8] = system: A. baumannii PBP3 N392T; assay: as above
[9] = system: A. baumannii PBP3 N377Y; assay: as above
[10] = system: A. baumannii wild-type PBP3; assay: as above; settings: Wildtype PBP3
[11] = system: A. baumannii PBP3 S395F; design: method as in McLeod et al. (2018); settings: average ± SD, ref McLeod et al. (2018); cited from earlier work

C[C@@H](O)[C@H]1C(=O)N2C(C(=O)O)=C(S[C@@H]3CN[C@H](C(=O)N(C)C)C3)[C@H](C)[C@H]12 [meropenem]
MIC ([1]; isolate ARC7020 (IHMA 2045326), Guatemala, RTI, 2019, read-out: MIC): > 64 µg/mL | MIC ([1]; isolate ARC7021 (IHMA 1966347), Guatemala, RTI, 2019, read-out: MIC): > 64 µg/mL | MIC ([1]; isolate ARC7022 (IHMA 2045319), Guatemala, IAI, 2019, read-out: MIC): > 64 µg/mL | MIC ([1]; isolate ARC7024 (IHMA 2059448), Turkey, RTI, 2019, read-out: MIC): > 64 µg/mL | MIC ([1]; isolate ARC7025 (IHMA 2002121), Spain, RTI, 2019, read-out: MIC): 64 µg/mL | MIC ([1]; isolate ARC7026 (IHMA 2104494), Guatemala, BSI, 2019, read-out: MIC): > 64 µg/mL | MIC ([1]; isolate ARC7082 (IHMA 2160640), Belgium, BSI, 2020, read-out: MIC): > 64 µg/mL | MIC ([1]; isolate ARC7083 (IHMA 2163687), United States, RTI, 2020, read-out: MIC): 64 µg/mL | MIC ([1]; isolate ARC7084 (IHMA 2189596), Germany, RTI, 2020, read-out: MIC): > 64 µg/mL | MIC ([1]; isolate ARC7085 (IHMA 2205747), Guatemala, IAI, 2020, read-out: MIC): > 64 µg/mL | MIC ([1]; isolate ARC7086 (IHMA 2207563), Israel, RTI, 2020, read-out: MIC): 32 µg/mL | MIC ([1]; isolate ARC7088 (IHMA 2215554), Turkey, BSI, 2020, read-out: MIC): > 64 µg/mL | MIC ([1]; isolate ARC7089 (IHMA 2240345), Argentina, BSI, 2020, read-out: MIC): 64 µg/mL | MIC ([1]; isolate ARC7090 (IHMA 2244410), Poland, RTI, 2020, read-out: MIC): > 64 µg/mL | MIC ([1]; isolate ARC7091 (IHMA 2244564), Australia, RTI, 2020, read-out: MIC): > 64 µg/mL | MIC ([1]; isolate ARC7092 (IHMA 2258772), United States, BSI, 2020, read-out: MIC): > 64 µg/mL | MIC ([1]; isolate ARC7093 (IHMA 2258783), United States, RTI, 2020, read-out: MIC): > 64 µg/mL | MIC ([1]; isolate ARC7094 (IHMA 2296423), Turkey, RTI, 2020, read-out: MIC): 64 µg/mL | MIC ([1]; isolate ARC7095 (IHMA 2320843), Turkey, BSI, 2020, read-out: MIC): 32 µg/mL | MIC ([1]; isolate ARC7156 (IHMA 2455450), Greece, RTI, 2021, read-out: MIC): > 64 µg/mL | MIC ([1]; isolate ARC7158 (IHMA 2523738), Italy, BSI, 2021, read-out: MIC): > 64 µg/mL | MIC ([1]; isolate ARC7159 (IHMA 2456229), Malaysia, RTI, 2021, read-out: MIC): > 64 µg/mL | MIC ([1]; isolate ARC7160 (IHMA 2458626), Thailand, RTI, 2021, read-out: MIC): > 64 µg/mL | MIC ([1]; isolate ARC7161 (IHMA 2429252), Ukraine, RTI, 2021, read-out: MIC): 64 µg/mL | MIC ([1]; isolate ARC7162 (IHMA 2411847), United States, BSI, 2021, read-out: MIC): > 64 µg/mL | MIC ([1]; isolate ARC7163 (IHMA 2477704), United States, BSI, 2021, read-out: MIC): > 64 µg/mL | MIC [2]: > 64 µg/mL | MIC ([3]; isolate ARC6949 (IHMA 1898982), Romania, RTI, 2018, read-out: MIC): > 64 µg/mL | MIC ([3]; isolate ARC6951 (IHMA 1776233), Philippines, RTI, 2018, read-out: MIC): > 64 µg/mL | MIC ([3]; isolate ARC6952 (IHMA 1899008), Romania, RTI, 2018, read-out: MIC): > 64 µg/mL | MIC ([3]; isolate ARC7087 (IHMA 2212062), Colombia, BSI, 2020, read-out: MIC): > 64 µg/mL | % WT [4]: 78% | k inact/K i ([4]; average ± SD): 3,900 ± 200 ([2]) M^-1s^-1 | % WT [5]: 30% | %NS (% non-susceptibility) ([6]; 64 non-clonal ABC isolates, 2023 CLSI breakpoints plus FDA breakpoint of 4 µg/mL for SUL-DUR): 100% | MIC50 ([6]; Acinetobacter): > 64 µg/mL | MIC90 ([6]; Acinetobacter): > 64 µg/mL | MIC ([6]; Acinetobacter, read-out: MIC Max): > 64 µg/mL | MIC ([6]; Acinetobacter, read-out: MIC Min): 32 µg/mL | % WT [7]: 120% | k inact/K i ([7]; average ± SD): 6,000 ± 10 ([2]) M^-1s^-1 | % WT [8]: 164% | k inact/K i ([8]; average ± SD): 8,200 ± 200 ([2]) M^-1s^-1 | % WT [9]: 74% | k inact/K i ([9]; average ± SD): 3,700 ± 300 ([2]) M^-1s^-1 | % WT [10]: 100% | k inact/K i ([10]; average ± SD): 5,000 ± 1,000 ([10]) M^-1s^-1 | k inact/K i [11]: 1,500 ± 200 ([3]) M^-1s^-1
